Assay results as given in US20190315823A1, “SMALL CATIONIC ANTI-BIOFILM AND IDR PEPTIDES” (priority 2013, published 2019).
Like-named read-outs stand apart in the source and are kept apart here. Marks after values point to notes of the source that are not given here. Peptide text beside a SMILES is read from it.

Tests used:
Type in all cases: cell-based
P. aeruginosa biofilm = system: P. aeruginosa biofilm
Procedure: (§1) Methods of assessment of anti-biofilm activity—Biofilm formation was initially analyzed using a static abiotic solid surface assay as described elsewhere (de la Fuente-Nunez et al., 2012). […] Planktonic cells were removed, biofilm cells adhering to the side of the tubes were stained with crystal violet, and absorbance at 595 nm was measured using a microtiter plate reader (Bio-Tek Instruments Inc., United States). Some peptides were screened against two Gram negative organisms, P. aeruginosa and K. pneumoniae using a Bioflux apparatus (AutoMate Scientific, Berkeley, Calif.; http://www.autom8.com/bioflux_biofilm.html), which allows for the high-throughput, real-time analysis of biofilms.

S. aureus biofilm = system: S. aureus biofilm
Procedure: as §1

[1] = system: human peripheral blood mononuclear cells (MCP-1); test: SPOT-synthesized derivative screen: production of chemokine MCP-1; details: No LPS
How it was run: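 PBMC from heparinized healthy-donor venous blood, Ficoll-separated, cultured at 0.75 to 1×10^6 cells/ml, 37 °C, 5% CO2, under the treatment regimens. MCP-1 in cell-free supernatants measured by capture ELISA.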

[2] = system: LPS-stimulated human peripheral blood mononuclear cells (IL1-β); details: cells stimulated with 10 ng/ml LPS
[3] = concentration that reduced biofilm growth by 50%
[4] = Table 12A, background subtracted (21.3 pg/ml)
[5] = Table 12A, 1002-2013 compared to LPS control of 889 pg/ml
[6] = Table 12A, LPS alone 984 pg/ml, starred values (1002-2013) determined separately, LPS alone 889 pg/ml

Row | SMILES | MBIC50 P. aeruginosa (P. aeruginosa biofilm; [3]) [µg/mL] | MBIC50 S. aureus (S. aureus biofilm; [3]) [µg/mL] | Fold increase in MCP1 cf. untreated cells ([1]; Table 12A) | MCP1 [1, 4] [pg/mL] | Fold change in IL1β relative to no peptide LPS stimulated cells [2, 5] | IL1β Production [2, 6] [pg/mL] | MBIC50 P. aeruginosa (P. aeruginosa biofilm; biofilm) [µg/mL] | MBIC50 S. aureus (S. aureus biofilm; biofilm) [µg/mL] | IL1β Production (pg/ml) [2, 6] | Fold increase in MCP1 cf. untreated cells ([1]; Table 12, human PBMC, peptide at ~18-24 μM) | MCP1 ([1]; Table 12, human PBMC, peptide at ~18-24 μM, background subtracted 139 (HH2 derivatives), 170 (1018 derivatives), 242 (1002 and hybrid peptides) pg/ml) [pg/mL] | Fold change in IL1β relative to no peptide LPS stimulated cells ([2]; Table 12) | IL1β Production ([2]; Table 12, LPS alone 1313 (HH2 derivatives), 1927 (1018 derivatives), 2455 (1002 and hybrid peptides) pg/ml) [pg/mL]
1 | CC[C@H](C)[C@H](NC(=O)[C@H](CCCNC(=N)N)NC(=O)[C@@H](NC(=O)[C@H](CCCCN)NC(=O)[C@@H](NC(=O)[C@@H](NC(=O)[C@H](CC(C)C)NC(=O)[C@H](CCCNC(=N)N)NC(=O)[C@@H](N)C(C)C)[C@@H](C)CC)C(C)C)C(C)C)C(=O)N[C@@H](CCCNC(=N)N)C(=O)N[C@@H](CCCNC(=N)N)C(=O)N[C@@H](CCCNC(=N)N)C(N)=O [Peptide 2003] (H-VRLIVKVRIRRR-NH2; N-terminus assumed) | 2.5 | 20 | 509 | 10848 | 1.07 | 1051 |  |  |  |  |  |  | 
2 | CC[C@H](C)[C@H](NC(=O)[C@@H](NC(=O)[C@H](CCCCN)NC(=O)[C@@H](NC(=O)[C@H](CCCNC(=N)N)NC(=O)[C@H](CCCNC(=N)N)NC(=O)[C@@H](NC(=O)[C@H](CCCNC(=N)N)NC(=O)[C@H](CCC(N)=O)NC(=O)[C@@H](N)Cc1c[nH]c2ccccc12)C(C)C)C(C)C)C(C)C)C(=O)N[C@@H](CCCNC(=N)N)C(=O)N[C@@H](CCCCN)C(N)=O [Peptide 2013] (H-WQRVRRVKVIRK-NH2; N-terminus assumed) |  |  | 31 | 645 | 0.93 |  | 20 | >80 | 830* pg/ml |  |  |  | 
3 | CC[C@H](C)[C@H](NC(=O)[C@H](CCCNC(=N)N)NC(=O)[C@@H](NC(=O)[C@H](CCCCN)NC(=O)[C@@H](NC(=O)[C@@H](NC(=O)[C@H](CC(C)C)NC(=O)[C@H](CCCNC(=N)N)NC(=O)[C@@H](N)C(C)C)[C@@H](C)CC)C(C)C)C(C)C)C(=O)N[C@@H](Cc1c[nH]c2ccccc12)C(=O)N[C@@H](CCCNC(=N)N)C(=O)N[C@@H](CCCNC(=N)N)C(N)=O [Peptide 2001] (H-VRLIVKVRIWRR-NH2; N-terminus assumed) | 2.5 | 10 | 765 | 16300 | 0.08 | 76 |  |  |  |  |  |  | 
4 | CC[C@H](C)[C@H](NC(=O)[C@H](CCCNC(=N)N)NC(=O)[C@@H](NC(=O)[C@H](CCCCN)NC(=O)[C@@H](NC(=O)[C@@H](NC(=O)[C@H](Cc1c[nH]c2ccccc12)NC(=O)[C@H](CCCNC(=N)N)NC(=O)[C@@H](N)C(C)C)[C@@H](C)CC)C(C)C)C(C)C)C(=O)N[C@@H](CCCNC(=N)N)C(=O)N[C@@H](CCCNC(=N)N)C(=O)N[C@@H](CCCNC(=N)N)C(N)=O [Peptide 2006] (H-VRWIVKVRIRRR-NH2; N-terminus assumed) | 20 | 10 | 316 | 6714 | 0.33 | 322 |  |  |  |  |  |  | 
5 | CC[C@H](C)[C@H](NC(=O)[C@H](CCCNC(=N)N)NC(=O)[C@@H](NC(=O)[C@H](CCCCN)NC(=O)[C@@H](NC(=O)[C@@H](NC(=O)[C@@H](NC(=O)[C@H](CCCNC(=N)N)NC(=O)[C@@H](N)C(C)C)C(C)C)[C@@H](C)CC)C(C)C)C(C)C)C(=O)N[C@@H](CCCNC(=N)N)C(=O)N[C@@H](CCCNC(=N)N)C(=O)N[C@@H](CCCNC(=N)N)C(N)=O [Peptide 2004] (H-VRVIVKVRIRRR-NH2; N-terminus assumed) | 2.5 | 20 | 340 | 7226 | 0.56 | 549 |  |  |  |  |  |  | 
6 | CC[C@H](C)[C@H](NC(=O)[C@H](CCCNC(=N)N)NC(=O)[C@@H](NC(=O)[C@H](CCCCN)NC(=O)[C@@H](NC(=O)[C@@H](NC(=O)[C@H](CC(C)C)NC(=O)[C@H](CCCNC(=N)N)NC(=O)[C@@H](N)CCCNC(=N)N)[C@@H](C)CC)C(C)C)C(C)C)C(=O)N[C@@H](Cc1c[nH]c2ccccc12)C(=O)N[C@@H](CCCNC(=N)N)C(=O)N[C@@H](CCCNC(=N)N)C(N)=O [Peptide 2007] (H-RRLIVKVRIWRR-NH2; N-terminus assumed) |  |  | 386 | 7954 | 0.88 | 867 | 5 | 10 |  |  |  |  | 
7 | CC[C@H](C)[C@H](NC(=O)[C@H](CCCNC(=N)N)NC(=O)[C@@H](NC(=O)[C@H](C)NC(=O)[C@@H](NC(=O)[C@@H](NC(=O)[C@H](CC(C)C)NC(=O)[C@H](CCCNC(=N)N)NC(=O)[C@@H](N)C(C)C)[C@@H](C)CC)C(C)C)C(C)C)C(=O)N[C@@H](CCCNC(=N)N)C(=O)N[C@@H](CCCNC(=N)N)C(=O)N[C@@H](CCCNC(=N)N)C(N)=O [Peptide 2002] (H-VRLIVAVRIRRR-NH2; N-terminus assumed) | 2.5 | 20 | 152 | 3215 | 0.30 | 293 |  |  |  |  |  |  | 
8 | CC[C@H](C)[C@H](NC(=O)[C@H](CCCNC(=N)N)NC(=O)[C@H](Cc1c[nH]c2ccccc12)NC(=O)[C@H](CCCNC(=N)N)NC(=O)[C@@H](NC(=O)[C@H](CC(C)C)NC(=O)[C@H](CC(C)C)NC(=O)[C@H](CCCNC(=N)N)NC(=O)[C@H](Cc1c[nH]c2ccccc12)NC(=O)[C@@H](N)CCCCN)[C@@H](C)CC)C(=O)N[C@@H](CCC(N)=O)C(=O)N[C@@H](CCCCN)C(N)=O [Peptide 2009] (H-KWRLLIRWRIQK-NH2; N-terminus assumed) |  |  | 586 | 12475 | 0.08 |  | 2.5 |  | 74* pg/ml |  |  |  | 
9 | CC[C@H](C)[C@H](NC(=O)[C@H](CCCNC(=N)N)NC(=O)[C@H](CC(C)C)NC(=O)[C@H](CCC(N)=O)NC(=O)[C@@H](N)Cc1c[nH]c2ccccc12)C(=O)N[C@@H](CCCNC(=N)N)C(=O)N[C@H](C(=O)N[C@@H](CCCCN)C(=O)N[C@H](C(=O)N[C@H](C(=O)N[C@@H](CCCNC(=N)N)C(=O)N[C@@H](CCCCN)C(N)=O)[C@@H](C)CC)C(C)C)C(C)C [Peptide 2012] (H-WQLRIRVKVIRK-NH2; N-terminus assumed) |  |  | 227 | 4824 | 0.43 |  | 20 |  | 381* pg/ml |  |  |  | 
10 | CC[C@H](C)[C@H](NC(=O)[C@H](CCCNC(=N)N)NC(=O)[C@H](CC(C)C)NC(=O)[C@H](CCC(N)=O)NC(=O)[C@@H](N)C(C)C)C(=O)N[C@@H](CCCNC(=N)N)C(=O)N[C@H](C(=O)N[C@@H](C)C(=O)N[C@H](C(=O)N[C@H](C(=O)N[C@@H](CCCNC(=N)N)C(=O)N[C@@H](C)C(N)=O)[C@@H](C)CC)C(C)C)C(C)C [HH2] (H-VQLRIRVAVIRA-NH2; N-terminus assumed) |  |  | 43 | 896 | 0.53 |  | >80 |  | 469* pg/ml | 3.6 | 450 | 1.00 | 1307
